Experimental findings from US20070060591A1, “Chemokine receptor binding heterocyclic compounds” (priority 1999, published 2007) are described below.

Converted amounts (≈) assume the structure as drawn. Like-named read-outs stand apart in the source and are kept apart here.

One series deals with MT-4 cells. The series is described as follows: in vitro. The class given is cell-based. How it is done:
(§1) The compounds of the invention were tested in a screen by the MTT method (J. Virol. Methods […] (1988)). MT-4 cells (2.5×10^4/well) were challenged with HIV-1 (HTLV-IIIB) or HIV-2 (LAV-2 ROD) at a concentration of 100 CCID50 and incubated in the presence of various concentrations of the test compounds, which were added immediately after challenge with the virus. After 5 days culture at 37° C. in a CO2 incubator, the number of viable cells was assessed by the MTT (tetrazolium) method. […] The potential therapeutic usefulness was assessed by calculating a Selectivity Index (SI) corresponding to the ratio of CC50 to EC50.

Another series concerns HIV-1 (HTLV-IIIB). As to the kind of experiment: microbe, parasite or virus in culture. As to conditions: MT-4 cells; 100 CCID50; 5 days; MTT. The format is cell-based. How it is done: as §1
The subject of another series is HIV-2 (LAV-2 ROD). As to the kind of experiment: Anti-HIV-2 screen by the MTT method in MT-4 cells. The class given is cell-based. The settings on record: 100 CCID50, 5 days. How it is done: as §1
(In general: Tetrazolium assays rely on reduction of a dye to a coloured formazan, in cell work by metabolically active cells.)

The target of series [1] is T1, CXCR-4 (Homo sapiens, UniProt P61073).
T1 construct: endogenous in cells; host or cells: SUP-T1 cells
The series is described as follows: Inhibition of signal transduction (Ca2+ flux) induced by SDF-1α binding to CXCR-4 on SUP-T1 cells. The format is cell-based. The settings on record: 1 μg/ml, SDF-1α induced, read-out: % Inhibition of Ca2+ flux (conc). (In general: A change in cytosolic calcium serves as a functional read-out for many receptors and channels.)

Series [2] deals with T1, CXCR-4. As to the kind of experiment: Inhibition of mAb 12G5 binding to CXCR-4 in SUP-T1 cells.
A further series has as its system HIV-1 BaL. As to the kind of experiment: Inhibition of infection of U87.CD4.CCR5 by HIV-1 BaL. The format is cell-based. As to conditions: U87.CD4.CCR5 cells.
For series [3] the following is noted: crosslinker bond, 14-membered ring, Cs2CO3, DMF.
The conditions of series [4]: from CCOP(=O)(OCC)N(CCCCCCCNC(=O)CBr)CCNS(=O)(=O)c1ccccc1[N+](=O)[O-]; amine bond; K2CO3; acetonitrile; 0.6 mM; 60.0 °C; 24.0 h.

T1 sequence (P61073 whole entry): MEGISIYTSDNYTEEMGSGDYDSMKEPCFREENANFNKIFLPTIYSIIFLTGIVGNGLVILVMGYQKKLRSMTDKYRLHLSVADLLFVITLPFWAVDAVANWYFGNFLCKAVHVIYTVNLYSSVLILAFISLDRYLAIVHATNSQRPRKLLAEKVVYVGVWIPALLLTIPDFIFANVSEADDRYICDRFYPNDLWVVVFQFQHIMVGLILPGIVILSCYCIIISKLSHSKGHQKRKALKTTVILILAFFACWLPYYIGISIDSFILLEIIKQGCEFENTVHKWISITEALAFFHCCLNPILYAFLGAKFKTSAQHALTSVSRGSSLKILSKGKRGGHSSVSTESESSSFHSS
Description for DBA/1 IFN-γ RKO mice: The control group consisted of ten mice that were injected with collagen as discussed below.
The experiments were performed in 8- to 12-week old mice, but in each experiment, the mutant and wild-type mice were age-matched with a 5 day limit. The male to female ratio was kept between 0.8 and 1.3 in each experimental group.
Native chicken collagen type II (EPC, Owensvillle, Mo.) was dissolved in 0.05 M acetic acid at 2 mg/ml by stirring overnight at 6° C., and emulsified in an equal volume of incomplete (IFA) or complete Freund's adjuvant (CFA) containing 1.5 mg/ml heat killed Mycobacterium butyricum (Difco, Detroit, Mich.). Mice were sensitized with a single 100 μl intradermal injection of the emulsion at the base of the tail. Mice were examined daily for signs of arthritis. The disease severity was recorded following a scoring system for each limb. Score 0: normal; score 1: redness and/or swelling in one joint; score 2: redness and/or swelling in more than one joint; score 3: redness and/or welling in the entire paw; score 4: deformity and/or ankylosis.

Take `Nc1ccccc1CNCc1ccc(CN2CCCNCCNCCCNCC2)cc1` [AMD3517, N-[1,4,8,11-Tetraazacyclotetradecanyl-1,4-phenylenebis(methylene)]-2-amino-benzylamine]: the CC50 with MT-4 cells came out at 153 µg/mL (≈ 360 µM). Moreover, the “EC50 HIV-1 (IIIB)” value with HIV-1 (HTLV-IIIB) was determined as 0.8 µg/mL (≈ 1.88 µM). The “EC50 HIV-2” value in the series with HIV-2 (LAV-2 ROD) is 10.6 µg/mL (≈ 25 µM).

With `c1cc(CNCc2ccc(CN3CCCNCCNCCCNCC3)cc2)ccn1` [AMD3500], the cytotoxic concentration (CC50) in the series with MT-4 cells is over 250 µg/mL. In the series on HIV-1 (HTLV-IIIB), the “EC50 HIV-1 (IIIB)” value turned out to be 0.6 µg/mL (≈ 1.46 µM). Further, the “EC50 HIV-2” value in the series on HIV-2 (LAV-2 ROD) was 10.3 µg/mL (≈ 25.1 µM).

For the compound `c1ccc(CNCc2ccc(CN3CCCCCCCNCCNCC3)cc2)nc1` [AMD7059, N-[1-(1,4,7-Triazacyclotetra-decanyl)-1,4-phenylenebis(methylene)]-2-(aminomethyl)pyridine], the inhibition at 1 µg/mL on CXCR-4 [1] was determined as 36%. Further, the IC50 at CXCR-4 [2] is over 2440 nM.

`Clc1ccc(CN2CCCNCCNCCCNCC2)cn1` [AMD3454, 1-[2-Chloropyrid-5-yl(methylene)]-1,4,8,11-tetraazacyclotetradecane]: in the series with HIV-1 BaL, the “IC50 against infection of U87.CD4.CCR5 by HIV-1 BaL” value (from here on “IC50 against infection”) worked out at 32.3 µg/mL.

In the case of `c1ccc(CNCc2ccc(CN3CCCNCCNCCCNCC3)cc2)cc1` [AMD3529, N-[1,4,8,11-Tetraazacyclotetradecanyl-1,4-phenylenebis(methylene)]-benzylamine], the CC50 in the series on MT-4 cells was found to be 130 µg/mL (≈ 317 µM). Also, the “EC50 HIV-1 (IIIB)” value in the series with HIV-1 (HTLV-IIIB) was determined as 0.4 µg/mL (≈ 0.977 µM). Further, the “EC50 HIV-2” value in the series on HIV-2 (LAV-2 ROD) stood at 2.6 µg/mL (≈ 6.35 µM).

In turn, `CN(Cc1ccc(CN2CCCNCCNCCCNCC2)cc1)Cc1ccccn1` [AMD3538, N-[1,4,8,11-Tetraazacyclotetradecanyl-1,4-phenylenebis(methylene)]-N-methyl-2-(aminomethyl)pyridine] showed a CC50 in the series with MT-4 cells of 209 µg/mL (≈ 492 µM). Also, in the series with HIV-1 (HTLV-IIIB), the “EC50 HIV-1 (IIIB)” value came to 0.1 µg/mL (≈ 0.235 µM). Besides, the “EC50 HIV-2” value in the series with HIV-2 (LAV-2 ROD) was 6.7 µg/mL (≈ 15.8 µM).

Turning to `c1ncc2ncn(Cc3ccc(CN4CCCNCCNCCCNCC4)cc3)c2n1` [AMD3472, N-[1,4,8,11-Tetraazacyclotetradecanyl-1,4-phenylenebis(methylene)]-purine], the “IC50 against infection” value in the series with HIV-1 BaL came out at 45.4 µg/mL.

For the compound `c1ccc(CNCc2ccc(CN3CCNCCNCCc4cccc(c4)CC3)cc2)nc1` [AMD7058, N-[4-[4,7,10-Triazabicyclo[13.3.1]heptadeca-1(17),13,15-trienyl]-1,4-phenylenebis(methylene)]-2-(aminomethyl)pyridine], the inhibition at 1 µg/mL on CXCR-4 [1] is 44%. The compound also had an IC50 at CXCR-4 [2] of over 2250 nM.

`Cc1cnc(CNCc2ccc(CN3CCCNCCNCCCNCC3)cc2)cn1` [AMD3498, N-[1,4,8,11-Tetraazacyclotetradecanyl-1,4-phenylenebis(methylene)]-(2-amino-methyl-5-methyl)pyrazine]: the CC50 in the series on MT-4 cells is over 250 µg/mL. For the same compound, the “EC50 HIV-1 (IIIB)” value in the series on HIV-1 (HTLV-IIIB) was 0.2 µg/mL (≈ 0.47 µM). In addition, in the series on HIV-2 (LAV-2 ROD), the “EC50 HIV-2” value amounted to 7.1 µg/mL (≈ 16.7 µM).

Regarding “bis(3-nitrobenzenesulfonylaminopropyl)ether? + N-(diethoxyphosphoryl)-O,O′-bis(2-methylsulfonyl)diethanolamine”, the ring closure, isolated yield in series [3] (the molecule shown is the open-chain precursor, 18.0 mM, 80.0 °C) amounted to 55%.

Regarding `CCOP(=O)(OCC)N1CCN(S(=O)(=O)c2ccccc2[N+](=O)[O-])CCCC(F)CCCN(S(=O)(=O)c2ccccc2[N+](=O)[O-])CC1`, the ring closure, isolated yield in series [3] (from bis-[2-(2-nitro-benzenesulfonylamino)-ethyl]-phosphoramidic acid diethyl ester + 1,7-bis(toluene-4-sulfonic acid)-4-fluoro-heptyl-ester, 15.9 mM, 85.0 °C) is 55%.

With `c1ccc(CNCc2ccc(CN3CCNCCCCCCCNCC3)cc2)nc1` [AMD7049, N-[4-(1,4,7-Triazacyclotetra-decanyl)-1,4-phenylenebis(methylene)]-2-(aminomethyl)pyridine], the inhibition at 1 µg/mL on CXCR-4 [1] came to 100%. Moreover, the IC50 on CXCR-4 [2] was 127 nM.

As to `c1csc(CNCc2ccc(CN3CCCNCCNCCCNCC3)cc2)c1` [AMD3516, N-[1,4,8,11-Tetraazacyclotetradecanyl-1,4-phenylenebis(methylene)]-2-(amino-methyl)thiophene], in the series with MT-4 cells, the CC50 was determined as 158 µg/mL (≈ 380 µM). In addition, in the series on HIV-1 (HTLV-IIIB), the “EC50 HIV-1 (IIIB)” value amounted to 0.7 µg/mL (≈ 1.68 µM). For the same compound, the “EC50 HIV-2” value in the series with HIV-2 (LAV-2 ROD) was found to be 9.8 µg/mL (≈ 23.6 µM).

“bis(3-nitrobenzenesulfonylaminopropyl)ether + Methanesulfonic acid, 5-methanesulfonyloxy-3-(4-{[( [...]” displayed a ring closure, isolated yield in series [3] (the molecule shown is the open-chain precursor, 6.3 mM, 80.0 °C) of 51%.

Compound `c1nc(CCNCc2ccc(CN3CCCNCCNCCCNCC3)cc2)c[nH]1` [AMD3543, N-[1,4,8,11-Tetraazacyclotetradecanyl-1,4-phenylenebis(methylene)]-4-(amino-ethyl)imidazole] came in with a cytotoxic concentration (CC50) in the series with MT-4 cells of 239 µg/mL (≈ 578 µM). The “EC50 HIV-1 (IIIB)” value in the series on HIV-1 (HTLV-IIIB) is 0.2 µg/mL (≈ 0.484 µM). Moreover, the “EC50 HIV-2” value with HIV-2 (LAV-2 ROD) stood at 1.0 µg/mL (≈ 2.42 µM).

With `Clc1cc(CN2CCCNCCNCCCNCC2)cc(Cl)n1` [AMD3451, 1-[2,6-Dichloropyrid-4-yl(methylene)]-1,4,8,11-tetraazacyclotetradecane], the “IC50 against infection” value in the series on HIV-1 BaL stood at 8.9 µg/mL.

`c1ccc(CCNCc2ccc(CN3CCCNCCNCCCNCC3)cc2)nc1` [AMD3497, N-[1,4,8,11-Tetraazacyclotetradecanyl-1,4-phenylenebis(methylene)]-2-(amino-ethyl)pyridine] registered a cytotoxic concentration (CC50) in the series on MT-4 cells of over 250 µg/mL. Moreover, the “EC50 HIV-1 (IIIB)” value with HIV-1 (HTLV-IIIB) amounted to 1.8 µg/mL (≈ 4.24 µM). Also, the “EC50 HIV-2” value in the series on HIV-2 (LAV-2 ROD) is 3.8 µg/mL (≈ 8.95 µM).

As to `CCOP(=O)(OCC)N1CCN(S(=O)(=O)c2ccccc2[N+](=O)[O-])CCCC(F)(F)CCCN(S(=O)(=O)c2ccccc2[N+](=O)[O-])CC1`, in series [3] (from bis-[2-(2-nitrobenzenesulfonylamino)-ethyl]-phosphoramidic acid diethyl ester + 1,7-bis(toluene-4-sulfonic acid)-4,4-difluoro-heptyl-ester, 15.4 mM, 85.0 °C), the ring closure, isolated yield is 19%.

The compound `CCOP(=O)(OCC)N1CCCCCCCNC(=O)CN(S(=O)(=O)c2ccccc2[N+](=O)[O-])CC1` registered a ring closure, yield of all isomers in series [4] of 90%.

As to `Nc1ccc(CNCc2ccc(CN3CCCNCCNCCCNCC3)cc2)cc1` [AMD3544, N-[1,4,8,11-Tetraazacyclotetradecanyl-1,4-Ihenylenebis(methylene)]-4-amino-benzylamine], the half-maximal cytotoxic concentration (CC50) in the series on MT-4 cells stood at 222 µg/mL (≈ 523 µM). For the same compound, the “EC50 HIV-1 (IIIB)” value in the series on HIV-1 (HTLV-IIIB) was determined as 0.7 µg/mL (≈ 1.65 µM). For the same compound, the “EC50 HIV-2” value with HIV-2 (LAV-2 ROD) was 3.7 µg/mL (≈ 8.71 µM).

For the compound `c1ccc(CNCc2ccc(CN3CCNCCNCCc4cccc(n4)CC3)cc2)nc1` [AMD7063, N-[4-[4,7,10,17-Tetraazabicyclo[13.3.1]heptadeca-1(17),13,15-trienyl]-1,4-phenylenebis(methylene)]-2-(aminomethyl)pyridine], the inhibition at 1 µg/mL on CXCR-4 [1] is 100%. On CXCR-4 [2], this compound showed an IC50 of 20.2 nM.

For `c1cc(CN2CCCNCCNCCCNCC2)ccc1CN1CCCNCCNCCCNCC1` [AMD3100], the IC50 in the series with HIV-1 BaL (Human immunodeficiency virus 1, BAL, read-out: IC50 against infection of U87.CD4.CCR5 by HIV-1 BaL) is over 100 µg/mL. Moreover, the animals demonstrating arthritis in the series with DBA/1 IFN-γ RKO mice (14 days after treatment, i.v. osmotic pump, 5 mg/ml over 14 days, control 7 of ten) is reported as 1 of the 8. Moreover, the “body weight loss of treated animals compared with control animals” value in the series with DBA/1 IFN-γ RKO mice (collagen-injected mice) is “did not demonstrate any significant body weight loss”. In addition, the “time until the single treated animal developed arthritic pathology” value in the series on DBA/1 IFN-γ RKO mice (post-treatment) was over 20 days.

`c1ccc(CNCc2ccc(CN3CCNCCc4cccc(c4)CCNCC3)cc2)nc1` [AMD7051, N-[7-(4,7,10-Triazabicyclo[13.3.1]heptadeca-1(17),13,15-trienyl)-1,4-phenylenebis(methylene)]-2-(aminomethyl)pyridine]: on CXCR-4 [1], the inhibition at 1 µg/mL was found to be 100%. The concentration for half-maximal inhibition (IC50) at CXCR-4 [2] was 15.8 nM.

For the compound `SCCNCc1ccc(CN2CCCNCCNCCCNCC2)cc1` [AMD3530, N-[1,4,8,11-Tetraazacyclotetradecanyl-1,4-phenylenebis(methylene)]-2-(amino-ethyl)mercaptan], the CC50 with MT-4 cells was 175 µg/mL (≈ 461 µM). Further, the “EC50 HIV-1 (IIIB)” value with HIV-1 (HTLV-IIIB) was found to be 0.5 µg/mL (≈ 1.32 µM). Besides, the “EC50 HIV-2” value in the series with HIV-2 (LAV-2 ROD) turned out to be 2.0 µg/mL (≈ 5.27 µM).

With `c1ccc(N2CCN(Cc3ccc(CN4CCCNCCNCCCNCC4)cc3)CC2)cc1` [AMD3526, 1-[1,4,8,11-Tetraazacyclotetradecanyl-1,4-phenylenebis(methylene)]-4-phenylpiperazine], in the series on HIV-1 BaL, the “IC50 against infection” value is 82 µg/mL.

For `c1ccc(CNCc2ccc(CN3CCNCCc4cccc(n4)CCNCC3)cc2)nc1` [AMD7050, N-[7-(4,7,10,17-Tetraazabicyclo[13.3.1]heptadeca-1(17),13,15-trienyl)-1,4-phenylenebis(methylene)]-2-(aminomethyl)pyridine], the inhibition at 1 µg/mL on CXCR-4 [1] was found to be 100%. At CXCR-4 [2], this compound showed a concentration for half-maximal inhibition (IC50) of 2.25 nM.

Regarding SDF-1α, the “Inhibition of mAb 12G5 binding IC50” value at CXCR-4 [2] stood at 0.27 µg/mL.

As usually defined, the CC50 is the concentration giving 50% cytotoxicity. Low values mean harm at low concentration, high ones better tolerance by the cells. Broadly, the inhibition is the relative decrease from the control value, in per cent. As a reminder, the IC50 is the concentration that gives 50% inhibition.
